Assay results: patent US10189839B2, “Tricyclic imidazole compounds as inhibitors of tryptophan hydroxylase” (ACTELION PHARMACEUTICALS LTD, priority 2013, dated 2019)

Biological target: T1, full length human TPH1 (Homo sapiens, UniProt P17752)
T1 construct: To generate the enzyme, full length human TPH1 is cloned into the plasmid pET20b(+); made in house; host or cells: E. coli
T1 sequence (P17752 1-444): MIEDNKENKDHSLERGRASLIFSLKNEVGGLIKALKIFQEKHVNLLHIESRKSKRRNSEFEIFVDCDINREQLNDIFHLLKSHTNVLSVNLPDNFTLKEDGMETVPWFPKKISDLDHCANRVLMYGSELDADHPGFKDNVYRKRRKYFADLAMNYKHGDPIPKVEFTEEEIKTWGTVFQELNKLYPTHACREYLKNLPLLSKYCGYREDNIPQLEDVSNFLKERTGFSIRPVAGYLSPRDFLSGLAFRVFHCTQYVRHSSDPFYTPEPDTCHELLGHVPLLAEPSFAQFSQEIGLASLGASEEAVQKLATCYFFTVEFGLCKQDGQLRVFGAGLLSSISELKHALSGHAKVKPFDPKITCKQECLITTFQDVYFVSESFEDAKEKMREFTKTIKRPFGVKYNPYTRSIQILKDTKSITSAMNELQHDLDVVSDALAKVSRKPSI
Assay: Biochemical in vitro assay using fluorescence readout (TPH1 enzyme activity)
Conditions: Table 1, mean where determined several times
Description: Inhibitory activities on tryptophan hydroxylase 1 have been measured for each example compound using the following procedure:
Biochemical In Vitro Assay Using Fluorescence Readout
To generate the enzyme, full length human TPH1 is cloned into the plasmid pET20b(+) (Novagen) and expressed in E. coli. The bacterial cells are ruptured by sonication on ice and the lysate is cleared by centrifugation. The resulting protein in the pellet is re-extracted and TPH1 is purified from the obtained lysate by affinity chromatography using a pterin cosubstrate analog immobilized to the resin of the column. The protein is further purified by size exclusion chromatography to remove protein aggregates. The activity of TPH1 is determined by using a fluorescence assay. The enzyme activity assay is carried out at 15° C. with atmosphere oxygen for the duration of 60 minutes in a volume of 64 μl. The reaction is carried out in a 0.1M Tris-HCl buffer, adjusted to pH 7.6, containing 1 mM DTT, 0.2 mg/ml catalase, 100 μM (±)-6-methyl-5,6,7,8-tetrahydropterine dihydrochloride, 40 μM L-tryptophan, and 40-80 nM of TPH1. The reaction is started by bringing together L-tryptophan with all the other reaction substituents and stopped by quenching with perchloric acid (HClO4). The amount of 5-hydroxy-L-tryptophan produced during the enzymatic reaction is determined by fluorescence readout. Fluorescence, as determined at 540 nm when excited at 300 nm wavelength, increases proportionally to the 5-hydroxy-L-tryptophan formed. Compounds are prepared as 10 mM stock solution in DMSO, then diluted in 384-well plates using DMSO followed by a transfer of the dilutions into the assay plate. Fluorescence is measured for each well and the fluorescence at 540 nm wavelength is compared to the fluorescence of the vehicle in place of compound. Inhibitory activities of example compounds with respect to the TPH1 protein are determined by calculating the IC50 value (the concentration of compound needed to inhibit 50% of the enzyme activity). The calculated IC50 values may fluctuate depending on the daily biochemical assay performance. Fluctuations of this kind are known to those skilled in the art. In the case where IC50 values have been determined several times for the same compound, the mean is given.

**Q.** For `CN(C)C(=O)c1ccc(OCC(=O)N2CCc3nc4n(c3C2c2ccc(C3CC3)cc2F)CCCC4)c(Cl)n1` (centres unmarked) [Example 1.8.4, 6-chloro-5-(2-(1-(4-cyclopropyl-2-fluorophenyl)-3,4,6,7,8,9-hexahydroimidazo[1,2-a:5,4-c′]dipyridin-2(1H)-yl)-2-oxoethoxy)-N,N-dimethylpicolinamide], which IC50 is on record?
**A.** Its IC50 is 11 nM.

**Q.** How did the IC50 turn out when `CCc1nc(NS(C)(=O)=O)ncc1OCC(=O)N1CCc2nc3n(c2C1c1ccc(C2CC2)cc1F)CCS3` (centres unmarked) [Example 4.3.4, N-(5-(2-(5-(4-cyclopropyl-2-fluorophenyl)-2,3,7,8-tetrahydrothiazolo[2′,3′:2,3]imidazo[4,5-c]pyridin-6(5H)-yl)-2-oxoethoxy)-4-ethylpyrimidin-2-yl)methanesulfonamide] was run?
**A.** The IC50 was 25 nM.

**Q.** Which IC50 does the source give for `CC(=O)N1CCn2c(nc3c2C(c2ccc(Cl)cc2F)N(C(=O)COc2ccc(N4CC(F)(F)C4)nc2Cl)CC3)C1` (centres unmarked) [Example 5.1.1, 1-(7-acetyl-1-(4-chloro-2-fluorophenyl)-3,4,6,7,8,9-hexahydropyrido[4′,3′:4,5]imida-zo[1,2-a]pyrazin-2(1H)-yl)-2-((2-chloro-6-(3,3-difluoroazetidin-1-yl)pyridin-3-yl)oxy)ethanone] here?
**A.** Its IC50 is 7 nM.

**Q.** `CC(=O)N1CCn2c(nc3c2C(c2ncc(C4CC4)cc2F)N(C(=O)COc2ccc(N4CCOCC4)nc2F)CC3)C1` (centres unmarked) [Example 5.4.8, 1-(7-acetyl-1-(5-cyclopropyl-3-fluoropyridin-2-yl)-3,4,6,7,8,9-hexahydropyrido[4′,3′:4,5]imidazo[1,2-a]pyrazin-2(1H)-yl)-2-((2-fluoro-6-morpholinopyridin-3-yl)oxy)ethanone] was tested. Which IC50 did it give?
**A.** Its IC50 is 91 nM.

**Q.** How did the IC50 turn out when `Cc1nc(C)c(C2c3c(nc4n3CCCC4)CCN2C(=O)COc2ccc(C#N)nc2Cl)s1` (centres unmarked) [Example 1.10.6, 6-chloro-5-(2-(1-(2,4-dimethylthiazol-5-yl)-3,4,6,7,8,9-hexahydroimidazo[1,2-a:5,4-c′]dipyridin-2(1H)-yl)-2-oxoethoxy)picolinonitrile] was run?
**A.** The IC50 was 77 nM.

**Q.** How did the IC50 turn out when `CS(=O)(=O)Nc1ccc(OCC(=O)N2CCc3nc4n(c3C2c2ccc(Cl)cc2F)CCCC4)c(C2CC2)n1` (centres unmarked) [Example 1.1.20, N-(5-(2-(1-(4-chloro-2-fluorophenyl)-3,4,6,7,8,9-hexahydroimidazo[1,2-a:5,4-c′]dipyridin-2(1H)-yl)-2-oxoethoxy)-6-cyclopropylpyridin-2-yl)methanesulfonamide] was run?
**A.** Its IC50 is 21 nM.

**Q.** How did the IC50 turn out when `O=C(COc1ccc(-c2ncco2)nc1Cl)N1CCc2nc3n(c2C1c1ccc(Cl)cc1F)CCCC3` (centres unmarked) [Example 1.1.5, 1-(1-(4-chloro-2-fluorophenyl)-3,4,6,7,8,9-hexahydro-imidazo[1,2-a:5,4-c′]dipyridin-2(1H)-yl)-2-((2-chloro-6-(oxazol-2-yl)pyridin-3-yl)oxy)ethanone] was run?
**A.** Its IC50 is 21 nM.

**Q.** `CC(=O)N1CCn2c(nc3c2C(c2ccc(C4CC4)cc2F)N(C(=O)COc2ccc(N4CC(F)(F)C4)nc2Cl)CC3)C1` (centres unmarked) [Example 5.2.12, 1-(7-acetyl-1-(4-cyclopropyl-2-fluorophenyl)-3,4,6,7,8,9-hexahydropyrido[4′,3′:4,5]imidazo[1,2-a]pyrazin-2(1H)-yl)-2-((2-chloro-6-(3,3-difluoroazetidin-1-yl)pyridin-3-yl)oxy)ethanone] was tested. Which IC50 did it give?
**A.** Its IC50 is 6 nM.

**Q.** `CCc1nc(N2CCCS2(=O)=O)ccc1OCC(=O)N1CCc2nc3n(c2C1c1ccc(Cl)cc1F)CCS3` (centres unmarked) [Example 4.1.6, 1-(5-(4-chloro-2-fluorophenyl)-2,3,7,8-tetrahydrothiazolo[2′,3′:2,3]imidazo[4,5-c]pyridin-6(5H)-yl)-2-((6-(1,1-dioxidoisothiazolidin-2-yl)-2-ethylpyridin-3-yl)oxy)ethanone] was tested. Which IC50 did it give?
**A.** The IC50 was 12 nM.

**Q.** For `CS(=O)(=O)Nc1ccc(OCC(=O)N2CCc3nc4n(c3C2c2ccc(OC(F)(F)F)cc2F)CCCC4)c(Cl)n1` (centres unmarked) [Example 1.20.2, N-(6-chloro-5-(2-(1-(2-fluoro-4-(trifluoromethoxy)phenyl)-3,4,6,7,8,9-hexahydroimidazo[1,2-a:5,4-c′]dipyridin-2(1H)-yl)-2-oxoethoxy)pyridin-2-yl)methanesulfonamide], which IC50 is on record?
**A.** Its IC50 is 37 nM.

**Q.** `O=C(NC1CC1)c1ccc(OCC(=O)N2CCc3nc4n(c3C2c2ccc(Cl)cc2F)CCS4)c(Cl)n1` (centres unmarked) [Example 4.1.12, 6-chloro-5-(2-(5-(4-chloro-2-fluorophenyl)-2,3,7,8-tetrahydrothiazolo[2′,3′:2,3]imidazo[4,5-c]pyridin-6(5H)-yl)-2-oxoethoxy)-N-cyclopropylpicolinamide] was tested. Which IC50 did it give?
**A.** The IC50 was 9 nM.

**Q.** For `CC(C)(O)c1ccc(C2c3c(nc4n3CCCC4)CCN2C(=O)COc2ccc(NS(C)(=O)=O)nc2Cl)c(F)c1` (centres unmarked) [Example 1.24.2, N-(6-chloro-5-(2-(1-(2-fluoro-4-(2-hydroxypropan-2-yl)phenyl)-3,4,6,7,8,9-hexahydroimidazo[1,2-a:5,4-c′]dipyridin-2(1H)-yl)-2-oxoethoxy)pyridin-2-yl)methanesulfonamide], which IC50 is on record?
**A.** The IC50 was 131 nM.

**Q.** How did the IC50 turn out when `O=C(COc1ccc(N2CCOCC2)nc1Cl)N1CCc2nc3n(c2C1c1ccc(Cl)cc1F)CCCC3` (centres unmarked) [Example 1.1.2, 1-(1-(4-chloro-2-fluorophenyl)-3,4,6,7,8,9-hexahydro-imidazo[1,2-a:5,4-c′]dipyridin-2(1H)-yl)-2-((2-chloro-6-morpholinopyridin-3-yl)oxy)ethanone] was run?
**A.** The IC50 was 7 nM.

**Q.** Which IC50 does the source give for `CN(C)C(=O)c1ccc(OC2(C(=O)N3CCc4nc5n(c4C3c3ccc(Cl)cc3F)CCCC5)CC2)c(Cl)n1` (centres unmarked) [Example 1.1.26, 6-chloro-5-(1-(1-(4-chloro-2-fluorophenyl)-1,2,3,4,6,7,8,9-octahydroimidazo[1,2-a:5,4-c′]dipyridine-2-carbonyl)cyclopropoxy)-N,N-dimethylpicolinamide] here?
**A.** Its IC50 is 51 nM.

**Q.** Which IC50 does the source give for `COC(C)(C)c1ccc(C2c3c(nc4n3CCCC4)CCN2C(=O)COc2ccc(C(=O)NC3CC3)nc2Cl)c(F)c1` (centres unmarked) [Example 1.25.1, 6-chloro-N-cyclopropyl-5-(2-(1-(2-fluoro-4-(2-methoxypropan-2-yl)phenyl)-3,4,6,7,8,9-hexahydroimidazo[1,2-a:5,4-c′]dipyridin-2(1H)-yl)-2-oxoethoxy)picolinamide] here?
**A.** Its IC50 is 68 nM.

**Q.** How did the IC50 turn out when `CS(=O)(=O)Nc1ccc(OCC(=O)N2CCc3nc4n(c3C2c2sccc2F)CCOC4)c(Cl)n1` (centres unmarked) [Example 6.6.3, N-(6-chloro-5-(2-(6-(3-fluorothiophen-2-yl)-3,4,8,9-tetrahydro-1H-pyrido[4′,3′:4,5]imidazo[2,1-c][1,4]oxazin-7(6H)-yl)-2-oxoethoxy)pyridin-2-yl)methanesulfonamide] was run?
**A.** Its IC50 is 160 nM.

**Q.** For `CN(C)C(=O)c1ccc(OCC(=O)N2CCc3nc4n(c3C2c2ncc(Cl)cc2F)CCOC4)c(Cl)n1` (centres unmarked) [Example 6.4.2, 6-chloro-5-(2-(6-(5-chloro-3-fluoropyridin-2-yl)-3,4,8,9-tetrahydro-1H-pyrido[4′,3′:4,5]imidazo[2,1-c][1,4]oxazin-7(6H)-yl)-2-oxoethoxy)-N,N-dimethylpicolinamide], which IC50 is on record?
**A.** The IC50 was 76 nM.

**Q.** For `CC(C)(C)OC(=O)N1CCn2c(nc3c2C(c2ccc(C4CC4)cc2F)N(C(=O)COc2ccc(N4CCOCC4)cc2Cl)CC3)C1` (centres unmarked) [Example 5.2.2, tert-butyl 2-(2-(2-chloro-4-morpholinophenoxy)acetyl)-1-(4-cyclopropyl-2-fluorophenyl)-1,2,3,4,8,9-hexahydropyrido[4′,3′:4,5]imidazo[1,2-a]pyrazine-7(6H)-carboxylate], which IC50 is on record?
**A.** The IC50 was 121 nM.

**Q.** With `CS(=O)(=O)c1ccc(OCC(=O)N2CCc3nc4n(c3C2c2ccc(Cl)cc2F)CCCC4)c(Cl)n1` (centres unmarked) [Example 1.1.28, 1-(1-(4-chloro-2-fluorophenyl)-3,4,6,7,8,9-hexahydroimidazo[1,2-a:5,4-c′]dipyridin-2(1H)-yl)-2-((2-chloro-6-(methylsulfonyl)pyridin-3-yl)oxy)ethan-1-one] as the compound, how does the IC50 read?
**A.** The IC50 was 90 nM.

Same assay, conditions: Table 2

**Q.** `CC(=O)N1CCn2c(nc3c2C(c2cc(C(=O)N(C)C)cs2)N(C(=O)COc2ccc(N4CCOCC4)nc2Cl)CC3)C1` (centres unmarked) [Example 5.3.2, 5-(7-Acetyl-2-(2-((2-chloro-6-morpholinopyridin-3-yl)oxy)acetyl)-1,2,3,4,6,7,8,9-octahydropyrido[4′,3′:4,5]imidazo[1,2-a]pyrazin-1-yl)-N,N-dimethylthiophene-3-carboxamide] was tested. Which IC50 did it give?
**A.** Its IC50 is 35 nM.
